From paper PMC5790502, “The anti-rheumatic drug, leflunomide, synergizes with MEK inhibition to suppress melanoma growth” (Oncotarget, 2017)
One block for each compound: values may come before it.

Key:
M375 melanoma tumors = experiment: Mouse xenograft study; assay type: in vivo; settings: M375 xenograft in SCID mice, selumetinib 30 mg/kg OG; for tumor volume: 12 days, leflunomide 7.5 mg/kg IP daily, vs vehicle control
Protocol: 8–10-week-old female severe immunodeficiency (SCID) mice were purchased from Charles River Laboratories. All procedures were performed under UK Home Office approved protocols and the University of East Anglia local guidelines. Experiments were conducted strictly in accordance with the locally approved animal handling protocol.
A total of 3 × 10^6 M375 melanoma cells were injected subcutaneously into 40 SCID mice. After approximately 4 weeks when the tumors were palpable, the mice were randomized into 4 arms. The 4 arms were; vehicle alone, leflunomide alone, selumetinib alone and leflunomide and selumetinib in combination. There were 10 mice in each arm. The drug regime was administered for 12 days. Leflunomide was administered by intraperitoneal (IP) injection daily at 7.5 mg/kg. Selumetinib was administered by oral gavage (OG) twice daily at 30 mg/kg for the first two days and was then delivered once daily thereafter. The tumor volume was measured every three days with calipers. Tumor volume was measured by the formula 0.52 (length × width^2). At the end of the experiment, the mice were culled and the excised tumors were weighed.

A375 melanoma cells [1] = experiment: Cell cycle analysis (PI staining, flow cytometry); assay type: cell-based, human; settings: 72 hours
Protocol: Cell cycle analysis was carried out as previously detailed. In brief, A375 melanoma cells were seeded in 24-well plates at a density of 4,600 cells per well. After 24 hours, the cells were treated with vehicle, 25, 50 and 100 µM of Leflunomide. After 72 hours, the cells were trypsinised and pelleted along with the culture medium. Cells were washed in PBS and fixed in ice-cold absolute ethanol. Cells were then stained with 200 µl PI/RNase A solution (Cell Signalling Technology). Cells were analyzed using a BD Accuri™ C6 flow cytometer (BD Biosciences) and the data was analyzed using the BD Accuri™ C6 Software and FlowJo (FLOWJO, LLC).

A375 melanoma cells [2] = experiment: Annexin V apoptosis assay; assay type: cell-based, human; settings: 72 hours
Protocol: Apoptosis was assessed using an Annexin V-FITC Apoptosis detection kit FITC (eBioscience), according to the manufacturer’s instructions. Briefly, cells were seeded in 24-well plates at a density of 4,600 cells per well. After 24 hours, the cells were treated with vehicle or leflunomide (at concentrations of 25, 50 and 100 µM). After 72 hours cells were trypsinised, washed in PBS and treated with fluorochrome-conjugated Annexin V and propidium iodide as indicated in the protocol. Cells were analyzed on the BD Accuri™ C6 flow cytometer and the data analyzed using the instrument software.

[3] = test system: rhabdomyosarcoma cells (RD-1); experiment: Cell viability assay (CellTiter-Glo); assay type: cell-based; settings: Homo sapiens; for IC50: RD1, 72 hours treatment
Protocol: (§1) Cells that had been seeded 24 hours earlier on poly-L-lysine coated 96-well plates (Sigma-Aldrich) to subconfluency, were treated with drugs at the indicated concentrations for 72 hours. Cytochalasin D (Sigma Aldrich) was used as a positive control. All conditions were repeated in triplicate. Cell viability was determined on day 5 using the CellTiter-Glo Luminescence assay (Promega), according to the manufacturer’s instructions. Luminescence from the plate was read on a BMG LabTech Omega Series plate reader (data analyzed using OMEGA software). Cell viability was calculated as a percentage of the mean vehicle control.
(§2) For pharmacological analysis, IC50 values were generated using Prism Graphpad software (Graphpad Software, Inc.) and calculated using a nonlinear regression model. Combinatorial drug synergy was assessed by determination of combination index (CI), which was calculated using CalcuSyn (Biosoft) software using the median effects methods as described by Chou and Talalay, CI values less than 0.7 indicated synergy, 0.7–0.9 weak synergy, 0.9–1.1 additivity, 1.1–1.45 indicated weak antagonism and greater than 1.45 antagonism.

M375 melanoma cells = experiment: Cell viability assay (CellTiter-Glo); assay type: cell-based; settings: Homo sapiens
Protocol: as §1, §2

[4] = test system: Human embryonic kidney cells (HEK-293); experiment: Cell viability assay (CellTiter-Glo); assay type: cell-based; settings: HEK293, 72 hours treatment
Protocol: as §1, §2

M202 melanoma cells = experiment: Cell viability assay (CellTiter-Glo); assay type: cell-based; settings: Homo sapiens, 72 hours treatment
Protocol: as §1, §2

M296 melanoma cells = experiment: Cell viability assay (CellTiter-Glo); assay type: cell-based; settings: Homo sapiens, 72 hours treatment
Protocol: as §1, §2

SKmel5 melanoma cells = experiment: Cell viability assay (CellTiter-Glo); assay type: cell-based; settings: Homo sapiens; for IC50: SK-MEL-5, 72 hours treatment
Protocol: as §1, §2

SKmel28 melanoma cells = experiment: Cell viability assay (CellTiter-Glo); assay type: cell-based; settings: Homo sapiens, SK-MEL-28, 72 hours treatment
Protocol: as §1, §2

M285 melanoma cells = experiment: Cell viability assay (CellTiter-Glo); assay type: cell-based; settings: Homo sapiens, 72 hours treatment
Protocol: as §1, §2

A375 melanoma cells [5] = experiment: Cell viability assay (CellTiter-Glo); assay type: cell-based; settings: Homo sapiens, A-375, 72 hours treatment
Protocol: as §1, §2

[6] = test system: Primary human melanocytes adult (HEMa-LP); experiment: Cell viability assay (CellTiter-Glo); assay type: cell-based; settings: Melanocyte, 72 hours treatment
Protocol: as §1, §2

M229 melanoma cells = experiment: Cell viability assay (CellTiter-Glo); assay type: cell-based; settings: Homo sapiens, 72 hours treatment
Protocol: as §1, §2

A375 melanoma cells [7] = experiment: Mitochondrial membrane potential assay (JC-1); assay type: cell-based, human; settings: rising concentrations of leflunomide (25, 50, 100 μM), 72 hours
Protocol: (§3) www.impactjournals.com/oncotarget/ Oncotarget, Supplementary Materials 2017 The anti-rheumatic drug, leflunomide, synergizes with MEK inhibition to suppress melanoma growth
(§4) Mitochondrial membrane potential [ΔΨM] assay REFERENCES
(§5) A375 melanoma cells were seeded in 12 well plates at 1. Tap WD, Gong KW, Dering J, Tseng Y, Ginther C, Pauletti a density of 10,000 cells per 1 ml of medium per well. After G, Glaspy JA, Essner R, Bollag G, Hirth P, Zhang C, Slamon 24 hours, the cells were treated with vehicle or leflunomide. DJ. […] Haluska FG, Tsao H, Wu H, Haluska FS, Lazar A, Goel V. of fresh PBS before being analyzed on the BD AccuriTM C6 Genetic alterations in signaling pathways in melanoma. […] Samples were exposed to 488 nm excitation, Cancer Res. 2006; 12:2301s–2307s. with JC-1 green monomer fluorescence detected at 533/30 3. von Euw E, Atefi M, Attar N, Chu C, Zachariah S, Burgess BL, nm in the FL1 channel and JC-1 red aggregates fluorescence Mok S, Ng C, Wong DJ, Chmielowski B, Lichter DI, Koya RC, detected at 585/20 nm in the FL2 channel. […] Data selective MEK inhibitor TAK733 against cutaneous and uveal was analyzed using the BD AccuriTM C6 Software. melanoma cell lines. […]
(§6) BD AccuriTM C6 flow cytometer (with green fluorescence 6. Atefi M, Titz B, Tsoi J, Avramis E, Le A, Ng C, Lomova A, Lassen detected in the FL1 channel). […]

A375 melanoma cells [8] = experiment: Mitotracker green staining (mitochondrial mass); assay type: cell-based, human
Protocol: as §3, §4, §5, §6

A375 melanoma cells [9] = experiment: BrdU proliferation assay; assay type: cell-based, human; settings: increasing concentrations of leflunomide, 72 hours
Protocol: A375 melanoma cells were seeded in 12-well plates at a density of 10,000 cells and grown on gelatin-coated coverslips. After 24 hours leflunomide was added to cells at 12.5, 25 or 50 μM (or a vehicle control) for 72 hours. Cells were pulsed for 2 hours with BrdU (Sigma-Aldrich) at a final working concentration of 10 μM. Cells were permeabilised in 2N-HCL + 0.5% Triton X-100. Primary BrdU antibody diluted 1:100 in 1% goat serum was applied and incubated overnight at 4°C followed by Alexa Fluor-488 anti-mouse secondary antibody Cells were counterstained with DAPI. Cells were mounted onto slides using hydromount and examined under a Zeiss AxioPlan 2ie widefield microscope with an AxioCam HRm CCD camera. Images were analyzed using Image J software.

phospho-ERK = experiment: Western blot of phospho-ERK; assay type: cell-based, human; settings: A375 and M202 cells; 0.1 or 1 µM selumetinib
Protocol: A375 melanoma cells were seeded and treated for 72 hours in varying drug conditions. Total protein extracts were then made using high SDS content lysis buffer (60 mM sucrose, 65 mM Tris-HCl, pH 6.8. 3% SDS). Protein concentration was determined using the DC protein assay (BIORAD). 10 μg of whole-cell protein lysate was loaded onto a 10% SDS-PAGE gel and transferred onto polyvinylidene difluoride membranes (Bio-Rad). A standard Western blot protocol was used for detection of the specific proteins as previously described.
Antibodies used included; Rabbit polyclonal phospho-ERK (1:1000, Cell Signalling Technology); Rabbit polyclonal phospho-p44/42 MAPK (1:1000, ERK1/2; Cell Signalling Technology); Mouse monoclonal HSC-70 (1:1000, Santa-Cruz Biotechnology); Rabbit polyclonal Mcl-1 (1:500, Santa-Cruz Biotechnology); Rabbit polyclonal anti-BIM (1:500, Merck-Millipore); Rabbit polyclonal PARP (1:1000, Cell Signalling Technology); Rabbit polyclonal PUMA (1:1000, Cell Signalling Technology); anti-rabbit IgG HRP linked secondary antibody (1:2000, Jackson ImmunoResearch); Anti-mouse IgG HRP linked secondary antibody (1:2000, Jackson ImmunoResearch); All anti-rabbit IgG HRP linked secondary antibody (1:2000, Cell Signalling Technology).

SMILES: Cc1oncc1C(=O)Nc1ccc(C(F)(F)F)cc1 [Leflunomide, leflunomide]
- tumor volume (M375 melanoma tumors): did not reduce tumor volume
- tumor weight (M375 melanoma tumors; excised at end of 12-day treatment, leflunomide 7.5 mg/kg IP): did not reduce the tumor volume or weight
- cells in G1 (G0-G1 phase) (A375 melanoma cells [1]; 25 μM leflunomide): 46.56%
- cells in sub-G1 (A375 melanoma cells [1]; 25 μM leflunomide): 5.36%
- reduction of percentage of cells in G2-M compared to the DMSO control (A375 melanoma cells [1]; 25 μM leflunomide): 50%
- cells in G1 (G0-G1 phase) (A375 melanoma cells [1]; 50 μM leflunomide): 55.05%
- cells in S-phase (A375 melanoma cells [1]; 50 μM leflunomide): 30.41%
- cells in sub-G1 (A375 melanoma cells [1]; 50 μM leflunomide): 9.12%
- cells in G1 (G0-G1 phase) (A375 melanoma cells [1]; 100 μM leflunomide): 73.56%
- cells in S-phase (A375 melanoma cells [1]; 100 μM leflunomide): 11.60%
- cells in sub-G1 (A375 melanoma cells [1]; 100 μM leflunomide): 11.84%
- early apoptotic cells (quadrant Q3) (A375 melanoma cells [2]; 50 μM leflunomide): 49.3%
- late apoptotic/necrotic cells (quadrant Q2) (A375 melanoma cells [2]; 50 μM leflunomide): 44.2%
- early apoptotic cells (quadrant Q3) (A375 melanoma cells [2]; 100 μM leflunomide): 28.5%
- late apoptotic/necrotic cells (quadrant Q2) (A375 melanoma cells [2]; 100 μM leflunomide): 19.1%
- viability at 25 µM (A375 melanoma cells [2]; Homo sapiens, A-375, 25μM leflunomide, read-out: viable cells (quadrant Q4)): 68%
- viability at 50 µM (A375 melanoma cells [2]; Homo sapiens, A-375, 50μM leflunomide, read-out: viable cells (quadrant Q4)): 5.91%
- viability at 100 µM (A375 melanoma cells [2]; Homo sapiens, A-375, 100μM leflunomide, read-out: viable cells (quadrant Q4)): 51.4%
- IC50 [3]: 84200 nM
- IC50 (M375 melanoma cells; M375, 72 hours treatment): 64100 nM
- IC50 [4]: 48100 nM
- IC50 (M202 melanoma cells): 68100 nM
- IC50 (M296 melanoma cells): 112000 nM
- IC50 (SKmel5 melanoma cells): 122000 nM
- IC50 (SKmel28 melanoma cells): 167000 nM
- IC50 (M285 melanoma cells): 61500 nM
- IC50 (A375 melanoma cells [5]): 57400 nM
- IC50 [6]: 148000 nM
- IC50 (M229 melanoma cells): 58200 nM
- mitochondrial membrane potential (JC-1, FL-1 channel) (A375 melanoma cells [7]): depolarized
- increase in the time to reach 5000 events by flow cytometry (sample cell density) (A375 melanoma cells [8]; 100 μM leflunomide relative to the 25 μM and 50 μM treated samples): 3 fold
- increase in the amount of green fluorescence (Mitotracker green) compared to the DMSO control (A375 melanoma cells [8]; 100 μM leflunomide, 72 hours): 3 fold
- number of BrdU positive (proliferating) cells (A375 melanoma cells [9]): dose-dependent decrease

SMILES: Cn1cnc2c(F)c(Nc3ccc(Br)cc3Cl)c(C(=O)NOCCO)cc21 [Selumetinib, selumetinib]
- amount of pERK protein (phospho-ERK): decreases in a dose-dependent manner
- tumor volume (M375 melanoma tumors): significantly reduced the average tumor volume
- viability at 1 µM ([3]; RD1, 1 μM selumetinib, read-out: cell viability (relative to vehicle control)): 55%
- IC50 [3]: 1050 nM
- IC50 (M375 melanoma cells; M375, 72 hours treatment): 100 nM
- IC50 (M375 melanoma cells; M375 melanoma cell line, Meki alone, combinatorial viability study (Figure 4A(i))): 64 nM
- IC50 (M202 melanoma cells): 500 nM
- IC50 (M296 melanoma cells): 470 nM
- viability at 1 µM (SKmel5 melanoma cells; SK-MEL-5, 1 μM selumetinib, read-out: cell viability (relative to vehicle control)): 51.8%
- IC50 (SKmel5 melanoma cells): 1010 nM
- IC50 (SKmel28 melanoma cells): 430 nM
- IC50 (M285 melanoma cells): 500 nM
- IC50 (A375 melanoma cells [5]): 190 nM
- IC50 (M229 melanoma cells): 200 nM

- IC50 (M202 melanoma cells): 1700 nM
- IC50 (M296 melanoma cells): 2000 nM
- IC50 (SKmel5 melanoma cells): 150 nM
- IC50 (SKmel28 melanoma cells): 800 nM
- IC50 (A375 melanoma cells [5]): 700 nM
- IC50 (M229 melanoma cells): 300 nM
SMILES: CCCS(=O)(=O)Nc1ccc(F)c(C(=O)c2c[nH]c3ncc(-c4ccc(Cl)cc4)cc23)c1F [Vemurafenib, vemurafenib]
